From the supplement of paper PMC10331698
± gives the standard deviation of the averaged measurements.

How the values were obtained:
Experiment in all cases: level (log10 ratio to DMSO vehicle control); higher = higher biomarker level / cell amount than vehicle control
[1] = compound: O=S(=O)(OCC(F)(F)F)C(F)(F)C(F)(F)C(F)(F)C(F)(F)F [2,2,2-Trifluoroethyl perfluorobutanesulfonate]; settings: in DMSO
Protocol: (§1)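 BioMAP Diversity Plus panel of 12 human primary cell co-culture systems (3C, 4H, LPS, SAg, BT, BF4T, BE3C, CASM3C, HDF3CGF, KF3CT, MyoF, Mphg). Compounds were added 1 h before stimulation and left for 24 h (MyoF 48 h; BT 72 h for soluble read-outs or 6 d for IgG). Biomarkers were read by ELISA, cytotoxicity by SRB, PBMC viability and proliferation by Alamar Blue. Each well value was divided by the mean of 8 DMSO control wells on the same plate and log10 transformed; duplicate blinded samples were tested at 4 concentrations.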

[2] = compound: OCC(F)(F)C(F)(F)C(F)(F)C(F)(F)C(F)(F)C(F)(F)C(F)(F)C(F)(F)CO [1H,1H,10H,10H-Perfluorodecane-1,10-diol]; settings: in DMSO
Protocol: as §1

[3] = compound: FC(F)(F)COC(OCC(F)(F)F)OCC(F)(F)F [tris(Trifluoroethoxy)methane]; settings: in DMSO
Protocol: as §1

[4] = compound: FC(F)(F)C(F)(F)C(F)(F)C(F)(F)CCI [1H,1H,2H,2H-Perfluorohexyl iodide]; settings: in DMSO
Protocol: as §1

[5] = compound: C=CC(=O)OCC(F)(F)C(F)(F)C(F)(F)C(F)(F)C(F)(F)C(F)(F)C(F)(F)C(F)F [1H,1H,9H-Perfluorononyl acrylate]; settings: in DMSO
Protocol: as §1

[6] = compound: Cc1ccc(S(=O)(=O)OCC(F)(F)C(F)(F)C(F)(F)C(F)(F)C(F)(F)C(F)F)cc1 [1H,1H,7H-Perfluoroheptyl 4-methylbenzenesulfonate]; settings: in DMSO
Protocol: as §1

[7] = compound: C=CC(=O)OCC(F)(F)C(F)(F)C(F)(F)C(F)(F)COC(=O)C=C [1H,1H,6H,6H-Perfluorohexane-1,6-diol diacrylate]; settings: 6700 nM; in DMSO
Protocol: as §1

Test System | level (log10) ([1]; 6700 nM) | level (log10) ([1]; 20000 nM) | level (log10) ([1]; 60000 nM) | level (log10) ([2]; 6700 nM) | level (log10) ([2]; 20000 nM) | level (log10) ([2]; 60000 nM) | level (log10) ([3]; 6700 nM) | level (log10) ([3]; 20000 nM) | level (log10) ([3]; 60000 nM) | level (log10) ([4]; 6700 nM) | level (log10) ([4]; 20000 nM) | level (log10) ([4]; 60000 nM) | level (log10) ([5]; 6700 nM) | level (log10) ([5]; 20000 nM) | level (log10) ([5]; 60000 nM) | level (log10) ([6]; 6700 nM) | level (log10) ([6]; 20000 nM) | level (log10) ([6]; 60000 nM) | level (log10) [7]
KF3CT:CD54/ICAM-1 | 0.015 ± 0.03 | -0.0055 ± 0.0092 | -0.006 ± 0.013 | -0.002 ± 0.0085 | -0.018 ± 0.0057 | -0.125 | -0.015 | -0.021 ± 0.0014 | -0.006 ± 0.023 | -0.0045 ± 0.025 | 0.016 ± 0.016 | -0.005 ± 0.027 | -0.0185 ± 0.005 | -0.0245 ± 0.0078 | -0.048 ± 0.0085 | 0.003 ± 0.0057 | 0.001 ± 0.0042 | 0 ± 0.0042 | -0.076 ± 0.0028
lMphg:CD69 | -0.016 ± 0.033 | -0.0355 ± 0.0021 | -0.079 ± 0.028 | -0.003 ± 0.0099 | -0.019 ± 0.033 | -0.348 | 0.0225 ± 0.05 | 0.005 ± 0.035 | 0.0095 ± 0.042 | -0.019 | -0.013 ± 0.013 | 0.043 ± 0.021 | -0.048 ± 0.0028 | -0.0265 ± 0.025 | -0.0255 ± 0.03 | -0.007 ± 0.016 | -0.048 ± 0.027 | -0.039 ± 0.062 | -0.06 ± 0.0042
HDF3CGF:CXCL8/IL-8 | 0.003 ± 0.0071 | 0.001 ± 0.0071 | 0.0125 ± 0.0064 | 0.004 ± 0.013 | -0.0055 ± 0.021 | -0.081 | -0.003 ± 0.0028 | -0.0005 ± 0.005 | 0.002 ± 0.0099 | 0.003 ± 0.0057 | -0.0025 ± 0.0035 | 0.0015 ± 0.011 | -0.009 ± 0.0042 | 0.0075 ± 0.021 | 0.0085 ± 0.0035 | -0.0045 ± 0.011 | 0.0065 ± 0.0035 | 0.0095 ± 0.0021 | -0.021 ± 0.0057
HDF3CGF:SRB | 0.0205 ± 0.012 | 0.0125 ± 0.029 | 0.0325 ± 0.035 | -0.0485 ± 0.021 | -0.0255 ± 0.091 | -0.224 | 0.003 ± 0.073 | 0.0335 ± 0.0035 | 0.02 ± 0.038 | 0.0085 ± 0.037 | -0.011 ± 0.0014 | 0.0105 ± 0.028 | -0.017 ± 0.059 | -0.011 ± 0.072 | -0.0635 ± 0.079 | 0.0175 ± 0.033 | -0.0095 ± 0.026 | -0.04 ± 0.055 | -0.291 ± 0.028
HDF3CGF:M-CSF | -0.009 ± 0.0057 | 0.0105 ± 0.022 | 0.0195 ± 0.005 | 0.0095 ± 0.035 | 0.001 ± 0.038 | -0.304 | -0.0005 ± 0.00071 | -0.0125 ± 0.005 | 0.022 ± 0.037 | -0.015 ± 0.0085 | -0.0295 ± 0.0064 | -0.074 ± 0.014 | -0.039 | -0.079 ± 0.041 | -0.254 ± 0.076 | -0.0385 ± 0.0021 | -0.0225 ± 0.036 | -0.0095 ± 0.013 | -0.588 ± 0.054
BE3C:SRB | 0 ± 0.0071 | 0.004 ± 0.0042 | 0.005 | -0.003 | -0.0105 ± 0.00071 | -0.024 | -0.002 ± 0.0028 | 0.005 ± 0.0057 | -0.002 ± 0.0085 | -0.003 ± 0.0028 | -0.0035 ± 0.00071 | 0.002 ± 0.011 | -0.004 | 0.0005 ± 0.005 | 0.001 ± 0.016 | -0.006 ± 0.0028 | -0.008 ± 0.0042 | -0.0145 ± 0.0035 | -0.006 ± 0.0028
3C:CD141/Thrombomodulin | -0.024 ± 0.018 | -0.041 ± 0.028 | -0.051 ± 0.016 | -0.027 ± 0.037 | -0.016 ± 0.0014 | 0.055 | -0.012 ± 0.061 | -0.038 ± 0.047 | -0.0425 ± 0.049 | -0.041 ± 0.051 | -0.0175 ± 0.052 | 0.0165 ± 0.059 | -0.042 ± 0.0028 | -0.076 ± 0.028 | -0.114 ± 0.016 | 0.008 ± 0.0028 | 0.021 ± 0.0014 | 0.0395 ± 0.00071 | -0.079 ± 0.021
MyoF:Collagen I | -0.0215 ± 0.0092 | -0.0045 ± 0.03 | -0.043 ± 0.023 | -0.0105 ± 0.015 | -0.0275 ± 0.013 | -0.109 | -0.006 ± 0.0085 | -0.013 ± 0.017 | -0.01 ± 0.0014 | -0.0005 ± 0.0035 | 0.0005 ± 0.022 | 0.0205 ± 0.042 | 0.0005 ± 0.023 | 0.0025 ± 0.00071 | -0.033 ± 0.028 | -0.001 ± 0.0028 | 0.019 ± 0.0099 | 0.001 ± 0.016 | -0.01 ± 0.052
MyoF:MMP-1 | 0.018 ± 0.16 | 0.043 ± 0.16 | 0.0695 ± 0.12 | -0.0415 ± 0.013 | -0.0275 ± 0.012 | 0.284 | -0.0085 ± 0.039 | -0.0145 ± 0.021 | 0.02 ± 0.044 | -0.0055 ± 0.023 | -0.0045 ± 0.039 | 0.066 ± 0.11 | -0.001 ± 0.054 | 0.0505 ± 0.0064 | 0.27 ± 0.033 | -0.0115 ± 0.0035 | 0.0185 ± 0.016 | 0.048 ± 0.014 | 0.231 ± 0.023
HDF3CGF:TIMP-1 | -0.0095 ± 0.042 | 0.039 ± 0.0042 | 0.0325 ± 0.021 | 0.0025 ± 0.0078 | 0.0135 ± 0.0092 | -0.307 | -0.0195 ± 0.047 | 0.011 ± 0.02 | -0.001 ± 0.042 | 0.012 ± 0.037 | -0.0115 ± 0.05 | -0.065 ± 0.083 | 0.001 ± 0.042 | -0.0005 ± 0.04 | -0.0165 ± 0.047 | -0.026 ± 0.027 | -0.0285 ± 0.047 | -0.023 ± 0.025 | -0.203 ± 0.0021
